Reference: patent publication US20230340530A1, “Methods of Protecting RNA” (Pfizer Inc., priority 2020, published 2023)

Experiments:
[1] = tested on: random 30nt RNA oligonucleotide with a 5′ Cy5 fluorophore and a 3′ Biotin (SEQ ID NO: 9); test: RNA Fluorescence Polarization (FP) protection assay; type: biochemical; details: 62.5 mM NaOH, 18 hours, dose response 600 µM top dose, n=2
Description: (§1) In the FP assay, fluorophores were added to the 3′ and 5′ end of a short RNA construct and incubated with a boron compound under accelerated degradation conditions (e.g., base and temperature). For intact RNA, the 2 fluorophores come together to produce fluorescence. When the RNA is cleaved, there is no fluorescence. […] The counter screen assay run for each boron compound was used as control.
The RNA FP protection assay used a random 30nt RNA oligonucleotide (oligo) with a 5′ Cy5 fluorophore and a 3′ Biotin of the following sequence: 5′-Cy5-
In the presence of excess streptavidin, the RNA oligo will bind to the streptavidin and rotational spin will decrease causing an increase in the mP value in a fluorescence polarization (FP) measurement. When the RNA backbone is hydrolyzed under base mediated hydrolysis with increasing pH the Cy5 fluorophore will be free to spin faster lowering the mP value in an FP measurement. Compounds that inhibit base mediated hydrolysis will prevent release of Cy5 and reduction in mP value. […]
With regard to the plots provided in FIGS. 2-7, the detection for this assay used the fluorescent polarization of the fluorescent dye used in the assay. When a fluorescent dye has a high mass the spin rate is low and when the fluorescence is measured using two polarizing filters one parallel and one perpendicular the amount of spin can be measured. The unit Polarization was measured as mili-Polarization (mP). A dye with high mass will have a high mP reading and low mass will have a low mP reading. Streptavidin was added to bind to the biotin-RNA-Cy5 oligo to achieve high mass and the high mP reading. […] When a boron compound dose provides 100% activity, the RNA is intact/protected and the mP value measured is high. […]
To all wells in a compound spotted assay ready plate (Coming #3820) were added 2.5 µL of a 2x Biotin-RNA-Cy5 (Genescript custom #SC1518) and Streptavidin (ThermoFisher#21135) made in nuclease free water, incubated for 20 minutes, 2.5 µL of 50 mM Tris pH 7.2 was added to the positive control wells, and 2.5 µL 125 mM NaOH was added to all other wells. […]

[2] = RNA FP protection counter screen assay; details: counter screen for false positives, n=2
Description: as §1

[3] = molecular target: RNA samples (Chi18 or HCV IRES); test: Droplet Digital Polymerase Chain Reaction (ddPCR) assay of RNA protection; type: biochemical; details: 50 mM Tris buffer pH 11.4, 16 hrs at 30° C. for Chi18 or 42° C. for HCV; table does not say which RNA; 600 µM to 0.018 µM compound, 2% DMSO; read-out: EC50 Values Obtained from the ddPCR Assay
Description: The ddPCR assays measured RNA integrity by converting intact RNA to cDNA by reverse transcription, then performing digital PCR in thousands of nanoliter-sized droplets for each sample. PCR was performed within each droplet, which allowed for more sensitive detection of subtle changes in RNA concentration compared to traditional PCR or qPCR. Additionally, primers/probes specific to the 5′ end of the RNA/cDNA transcript(s) were used to assess fragment integrity, i.e. degraded RNA had fewer 5′ positive droplets. The BioRad QX200 Droplet Digital PCR System was used for the ddPCR workflow.
RNA samples (Chi18 or HCV IRES) were diluted to 100 fg/µL in 50 mM Tris buffer pH 11.4. Boron compounds were tested in a dose-response format to determine EC50. A compound dilution plate that contained a 30 mM top concentration of compound in DMSO was serially (half-log) diluted 10 times. A quantity of 0.12 µL of this compound dilution plate was spotted into a 96-well PCR plate (Thermo). Sample RNAs were added (6 µL) and incubated with test compounds as described below. Final compound concentrations ranged from 600 µM to 0.018 µM in 2% DMSO.
For the degradation reaction, treated RNAs were incubated for 16 hrs at 30° C. for Chi18 samples or 42° C. for HCV samples. Upon completion of the degradation reaction, cDNA was made and ddPCR run for each sample (96 well plates). Positive 5′ droplet values were divided by the total accepted droplet values for each sample and a ratio value generated for each sample.
Data was imported into a database where percent (%) protection and compound EC50 were calculated and curated. […] EC50 was determined by using a four parameter logistic equation: Y=A+((B-A)/(1+(C/X)D)); where Y is percent protection, X is compound concentration, A and B are minimum and maximum asymptotes, respectively, C is EC50, and D is Hill slope.

Molecule	ability of the boron compound to protect RNA from being cleaved/degraded (percent activity, FP) [1]	activity in the RNA FP protection counter screen [2]	EC50 [3] [µM]
CC1(C)OB(O)c2cc(C(=O)O)ccc21 [PF-06966741, 1-hydroxy-3,3-dimethyl-1,3-dihydrobenzo[c][1,2]oxabor ole-6-carboxylic acid]	RNA protective effect	lack of activity	
NCc1cc(C(F)(F)F)ccc1Oc1ccc2c(c1)COB2O [PF-06967658, 5-(2-(aminomethyl)-4-(trifluoromethyl)phenoxy)be nzo[c][1,2]oxaborol-1 (3H)-ol]	RNA protective effect	lack of activity	
CC1(C)OB(C2(B3OC(C)(C)C(C)(C)O3)CCCCC2)OC1(C)C [PF-07230998, 2,2′-(cyclohexane-1,1-diyl)bis(4,4,5,5-tetramethyl-1,3,2-dioxaborolane)]	RNA protective effect	lack of activity	
bis(acetato-kappaO)[1-cyclopropyl-6,7-difluoro-8-methyl-4-(oxo-kappaO)-1,4-dihydroquinoline-3-carboxylato-kappaO]boron [PF-04743686]			271
